Values of other authors, collected in US9109008B2, “Tubulysin compounds, methods of making and use” (priority 2013, dated 2015).

System: cancer cell lines
Details: Kaur et al. 2006

## CC[C@H](C)[C@H](NC(=O)[C@H]1CCCCN1C)C(=O)N(COC(=O)CC(C)C)[C@H](C[C@@H](OC(C)=O)c1nc(C(=O)N[C@@H](Cc2ccc(O)cc2)C[C@H](C)C(=O)O)cs1)C(C)C [tubulysin A]
  antiproliferative potency compared with other antimitotic agents: more potent than other antimitotic agents such as paclitaxel and vinblastine
